Experimental data published in US20250179167A1, “IL-6 INHIBITOR AS TREATMENT FOR NEPHROPATHY” (YALE UNIVERSITY, priority 2022, published 2025).

Assays:
[1] = tested on: isolated endothelial cells; experiment: Western blot in isolated endothelial cells from Wnt inhibitor-treated diabetic mice; format: in vivo, mouse; conditions: isolated ECs from Wnt inhibitor-treated diabetic mice
From the text: Western blot analysis of Snail1, PPARα, active-β-catenin, and HIF1α proteins in isolated endothelial cells. […] Densitometry calculations are combined from three independent experiments Data are mean±SEM. One-way Anova with Tukey multiple comparison post hoc test was used to calculate statistical significance. Significance—*p<0.05, **p<0.01, ***p<0.001. Isolation of endothelial cells. Endothelial cells from the kidneys of non-diabetic and diabetic mice were isolated using a standardized kit (Miltenyl Biotech, USA) by following the manufacturer's instructions. Briefly, kidneys were isolated and minced into small pieces. Using a series of enzymatic reactions by treating the tissue with trypsin and Collagenase type I solution, a single cell suspension was created. The pellet was dissolved with CD31 magnetic beads and the CD31-labelled cells were separated on a magnetic separator. The cells were further purified on a column. Cell number was counted by hemocytometer and cells were plated on 0.1% gelatin coated Petri dishes. Cell purity was measured by flow cytometry (BD FACSDiva) using PE-conjugated CD31 (BDB553373) (1:100) and FITC-conjugated CD45 (BDB553079) (1:100), both from Becton Dickinson (USA). Western blot. Protein lysates were boiled in sodium dodecyl sulfate (SDS) sample buffer at 94′C for 5 min. […]

control and GR^ECKO mice = experiment: Wnt inhibitor (LGK974) treatment in nondiabetic and diabetic control and GR^ECKO mice; format: in vivo, mouse
Procedure: (FIG. 5A) Schematic diagram showing the treatment protocol of Wnt inhibition in diabetic control and GR^ECKO mice. (FIG. 5B) Physiological parameters including body weight, blood glucose and kidney weight/body weight were analyzed. N=6 biologically independent mice/group combined from two experiments. (FIG. 5C) Masson trichrome, Sirius red and PAS staining as well as immunohistochemical analysis of β-catenin levels in the kidneys of wnti-treated diabetic control and GR^ECKO mice. Representative images are shown; original magnification 300×. Relative area of fibrosis (%) and relative collagen deposition (%) were measured using the ImageJ program. N=8 biologically independent mice/group combined from three experiments were analyzed. Scale bar 50 μm. Data are mean SEM. For all panels one-way ANOVA with Tukey post-test was used for analysis of statistical significance. Significance—*p<0.05, **p<0.01, ***p<0.001.
Physiological parameters including body weight, blood glucose, and kidney weight/body weight are shown. n=7 biologically independent mice/group combined from two experiments were analyzed. Data are mean±SEM. One-way Anova with Tukey multiple comparison post hoc test was used to calculate statistical significance.
FIGS. 27A-27B Histological analysis of kidneys from Wnt inhibitor-treated nondiabetic control and GR^ECKO mice. (FIG. 27A) Masson trichrome staining (MITS) and Sirius red staining in Wnt inhibitor-treated nondiabetic control and GR^ECKO mice. Representative images are shown; original magnification 200×. Area of fibrosis (%) and relative collagen deposition (%) were measured using the ImageJ program. N=5 biologically independent mice/group were analyzed. Data are mean±SEM. Scale bar 50 μm. (FIG. 27B) Immunohistochemical analysis of -catenin expression in the kidneys of Wnt inhibitor-treated nondiabetic control and GR^ECKO mice. Scale bar 30 μm. n=6 biologically independent mice/group combined from two independent experiments were analyzed. Representative images are shown; original magnification 300×. One-way Anova with Tukey multiple comparison post hoc test was used to calculate statistical significance. Significance—*p<0.05, **p<0.01, ***p<0.001.
Immunohistochemical analysis of Snail1, PPAR. and HIF1. expression in the Wnti-treated and untreated control, and GR^ECKO mice. Scale bar 50 μm. n=7 biologically independent mice/group combined from three independent experiments were analyzed. Representative images are shown; original magnification 200×.
Immunofluorescence analysis of α-SMA/CD31/DAPI and E-cadherin/α-SMA/DAPI in kidneys of Wnt inhibitor-treated nondiabetic and diabetic mice. Top panel: α-SMA FITC labelled, CD31 rhodamine labelled and DAPI blue; Lower panel: E-Cadherin FITC-green labelled, α-SMA red rhodamine labelled and DAPI blue. Representative images are shown; original magnification 400×. Scale bar 50 μm. n=6 biologically independent mice/group combined from three independent experiments were analyzed. NC: non-diabetic control; DC: diabetic control; D: diabetic.
To determine whether Wnt inhibition could mitigate the renal fibrosis observed in diabetic GR^ECKO mice, a cohort of animals was treated with LGK974. At the age of 8 weeks, control and GR^ECKO mice were injected with STZ 50 mg/kg for five consecutive days. Sixteen weeks after injection, LGK974 was administered by oral gavage for eight additional weeks (FIG. 5A).
Animal Experimentation. All experiments were performed according to a protocol approved by the Institutional Animal Care and Use Committee at the Yale University School of Medicine and were in accordance with the National Institute of Health (NIH) Guidelines for the Care of Laboratory Animals Mice were housed at an ambient temperature of 68-79° F. with a humidity that ranged between 30%-70%. […]

[2] = nondiabetic control mice or nondiabetic GR^ECKO, compared to untreated nondiabetic controls

Cc1cc(-c2ncc(CC(=O)Nc3ccc(-c4cnccn4)cn3)cc2C)ccn1 [LGK974]
Snail1, HIF1α and PPARα proteins [1]: A similar effect was observed
level of EMT (E-cadherin/αSMA double positive cells) (control and GR^ECKO mice; control and diabetic GR^ECKO mice): significantly reduced
kidney weight (control and GR^ECKO mice; diabetic GR^ECKO and diabetic control mice): significant reduction
EndMT (CD31/αSMA double positive cells) (control and GR^ECKO mice; diabetic GR^ECKO mice): less pronounced
relative area of fibrosis (control and GR^ECKO mice; diabetic GR^ECKO mice): less pronounced, though still significant
relative collagen deposition (control and GR^ECKO mice; diabetic GR^ECKO mice): less pronounced, though still significant
tubular damage (control and GR^ECKO mice; diabetic GR^ECKO mice): less pronounced, though still significant
EndMT (CD31/αSMA double positive cells) (control and GR^ECKO mice; diabetic control mice): significantly suppressed
relative area of fibrosis (control and GR^ECKO mice; diabetic control mice): clearly improved
relative collagen deposition (control and GR^ECKO mice; diabetic control mice): clearly improved
tubular damage (control and GR^ECKO mice; diabetic control mice): clearly improved
expression of HIF1α (control and GR^ECKO mice; kidneys of diabetic GR^ECKO): suppressed
expression of Snail1 (control and GR^ECKO mice; kidneys of diabetic GR^ECKO): suppressed
level of PPARα (control and GR^ECKO mice; kidneys of diabetic GR^ECKO): significantly increased
renal fibrogenic phenotype (control and GR^ECKO mice; [2]): did not result in any remarkable change
β-catenin level (control and GR^ECKO mice; [2]): did not result in any remarkable change
